Measurements as given in patent US12016884B2, “Adipose derived stem cell exosomes and uses thereof” (UNIVERSITY OF SOUTH FLORIDA, priority 2016, dated 2024).
“Also recorded” adds a separate entry of the source.

System: human dermal fibroblast (HDF) cells
Assay: ECIS (electric cell-substrate impedance sensing) wound healing assay
Format: cell-based
Settings: Dynasore about 50 μM added to media with 20 μg exosomes (FIG. 9)
Experimental: ECIS assays: The ECIS or electric cell-substrate impedance sensing instrument (Applied Biophysics) recorded the impedance on electrically wounded hHDF to detect the migratory response. Briefly, 200 μl of cell suspension were seeded per well of 8W1E ECIS array (5×10^4 cells per well) coated with about 1% gelatin. After cells were confluent in the incubator, the ECIS chambers were mounted to the ECIS system. […] Arrays were then washed with medium under the microscope to remove any dead cells on the electrodes. Thereafter, the wound healing process was determined in real-time by measuring the recovery of electrical impedance, an indicator of the surrounding viable fibroblast cells migrating into the wounded area. […]
Briefly, HDF cells on the micro-electrods of the ECIS wells were killed with a high electrical voltage. Subsequently, the migration of viable cells onto the wounded microelectrodes was measured in real-time by electrical resistance in the presence of bFGF ([…]), about 10 μg/mL exosomes, and about 20 μg/mL exosome respectively. The percentage of recovery was calculated by the difference in the resistance of each time point and the resistance of the first time point after wounding divided by the resistance before the wounding. […]

## O=C(N/N=C/c1ccc(O)c(O)c1)c1cc2ccccc2cc1O [Dynasore]
  effect on exosome-driven cell migration in ECIS: blocked the cell migratory effect of exosomes; also recorded: greatly attenuate cell migration; also recorded: inhibition of migration
